Data: patent publication US20080214471A1, “Method for inhibition of viral infection” (priority 1992, published 2008)

Key:
HDV virions [1] = assay: Inhibition of HDV virion production in co-transfected Huh-7 cells (northern blot for HDV genomic RNA); type: cell-based, hepatitis delta virus (HDV); conditions: Huh-7 cells co-transfected with HDV and HBV plasmids
Text: (§1) FIG. 8 illustrates that FT1-277 inhibits production of HDV virions. Huh-7 cells were co-transfected with HDV and HBV encoding plasmids to establish production of HDV virions, as described in the text, and grown in the presence of the indicated concentrations of FTI-277. HDV genome replication in the cells, and the amount of HDV genome-containing virions released into the supernatants, were monitored by northern blot analysis with a probe for HDV genomic RNA (left panel). The results were quantitated with a phosphoimager and the amount of virions produced at each concentration of FTI-277, expressed as a percentage of the no drug control, was plotted (purple bars, right panel). Also plotted are the results of assays for cellular metabolism (XTT assay, yellow bars), and general protein synthesis and secretion (HBV surface antigen released into the media supernatants, blue bars).
Completely infectious HDV particles were produced using the system disclosed in Sureau et al., J. Virol., 66:1241-5 (1992). […]
(§2) FTI-277, a prenylation inhibitor, was tested for its ability to inhibit HDV virion production. […] Non-specific toxicity was assessed by free HBV surface antigen assay, which assesses effects on general protein synthesis and secretion, and a standard XTT assay, which measures overall cell metabolism.

Huh-7 cells [2] = assay: Free HBV surface antigen assay (general protein synthesis and secretion); type: cell-based; conditions: at a concentration that effectively inhibits HDV virion production
Text: as §1, §2

Huh-7 cells [3] = assay: Standard XTT assay (overall cell metabolism); type: cell-based; conditions: at a concentration that effectively inhibits HDV virion production
Text: as §1, §2

HDV virions [4] = assay: In vivo treatment of HDV in HBV-transgenic mice, serum HDV virions by RT-PCR; conditions: 50 mg/kg/day IP for one week
[5] = Serum alanine aminotransferase (ALT) assay for non-specific toxicity; conditions: HBV-transgenic mice, 50 mg/kg/day IP for one week, on average

COC(=O)[C@H](CCSC)NC(=O)c1ccc(NC[C@@H](N)CS)cc1-c1ccccc1 [FTI-277]
HDV virion production (HDV virions [1]; micromolar concentration): no detectable HDV virions produced
HDV virion production (HDV virions [1]; mid-nanomolar concentration): dramatically inhibited
general protein synthesis and secretion (free HBV surface antigen released into media) (Huh-7 cells [2]): essentially does not affect
overall cell metabolism (XTT assay) (Huh-7 cells [3]): essentially does not affect
production and release of HDV virions into the serum (HDV virions [4]): completely eliminated
level of ALT compared with the placebo [5]: same level of ALT as the placebo
